Data as given in patent US10201556B2, “Combination for use in treating diseases or conditions associated with melanoma, or treating diseases or conditions associated with activated B-raf pathway” (InteRNA Technologies B.V., priority 2012, dated 2019).

Legend:
[1] = tested on: RPMI-7951 melanoma cell line; assay: Anti-proliferative effect of small molecules, MTS assay; type: cell-based; conditions: Homo sapiens; RPMI-7951, intrinsic resistance; 72 hours, MTS
Protocol: (§1) The anti-proliferative effect of small molecules in melanoma cell lines was determined with V600E BRAF inhibitor, vemurafenib (PLX-4032, 51267, Selleck) and MEK inhibitor, selumetinib (AZD-6244, S1008, Selleck). For each cell line optimal growth conditions were determined prior to the experiment. Cells were plated in a 96-well plate at 3000 cells per well (100 uL) and were grown at 37 C, 5% CO2. Small molecule mix (50 uL per well) was made for each concentration in medium. Cells were treated in triplicate 24 hours after plating. After 72 hours medium was replaced and viability was measured with the MTS assay (Promega) according to manufacturer's instructions. Cell viability inhibition is normalized against loading control (0.1% DMSO) and GraphPad Prism was used to fit the curve and calculate GI50 values.

[2] = tested on: M249-R4 melanoma cell line; assay: as above; type: cell-based; conditions: M249-R4 (M249-AR4), in vitro acquired resistance, 72 hours
Protocol: as §1

A2058 melanoma cell line = assay: as above; type: cell-based; conditions: Homo sapiens, A2058, intrinsic resistance, 72 hours
Protocol: as §1

M249 melanoma cell line = assay: as above; type: cell-based; conditions: M249, 72 h, M249, vemurafenib sensitive
Protocol: as §1

[3] = tested on: A375Hu melanoma cell line; assay: as above; type: cell-based; conditions: Homo sapiens, A-375, 72 h, A375Hu (A375), vemurafenib sensitive
Protocol: as §1

M233 melanoma cell line = conditions: M233; value marked with footnote 1) Atefi M. et al.; cited from earlier work
M376 melanoma cell line = conditions: M376; value marked with footnote 1) Atefi M. et al.; cited from earlier work
[4] = tested on: A375Hu-R1 (vemurafenib resistant clone of A375Hu); assay: Anti-proliferative effect of small molecules, MTS assay; type: cell-based; conditions: Homo sapiens, A375Hu-R1 (A375-R), in vitro acquired resistance, 72 hours
Protocol: as §1
The A375Hu melanoma cell line was used to make a vemurafenib (PLX-4032) resistant sub line. A375Hu cells were plated at low density in 96-well plates and exposed to 1 uM PLX-4032. Cell growth was monitored until clonal growth was observed. Wells with clonal growth (approximately 5%) were replated in a 96-well plate and exposed to 1 uM PLX-4032. The 10 best growing clones were replated in 6-well plates in 1 uM PLX-4032 and the three best growing clones were used for further culturing. Clone number 1 (A375Hu-R1) grew best with 1 uM PLX-4032 and was chosen for additional experiments.

[5] = tested on: SKMEL-57 melanoma cell line; assay: as above; type: cell-based; conditions: SKMEL-57, vemurafenib sensitive
Protocol: as §1
A375 cells were obtained from the Hubrecht Institute (Utrecht, The Netherlands); SKMEL-28, A2058 and RPMI-7951 were from the ATCC; SKMEL-57 was a gift from Dr. Patricia Groenen (Radboud University Nijmegen Medical Centre, The Netherlands); for cell line characteristics of M249, M249-AR4, M233 and M376 see (Atefi et al. 2011). A375-R, with in vitro acquired resistance to vemurafenib, was established in our lab by clonal selection of cells continually exposed to 1 μM vemurafenib. A375, A375-R, SKMEL-28, A2058 and SKMEL-57 were grown in DMEM GlutaMAX™-I (Gibco®), all other cell lines in RPMI-1640 (Gibco®). Media was supplemented with 10% FBS (Sigma), and cells were maintained in a humidified 37° C. incubator (Thermo Scientific) with 5% CO2. Vemurafenib (PLX4032; Selleck Chemicals) was diluted in DMSO to a stock concentration of 10 mM.

GI50 [1]: > 10000 nM
GI50 [2]: 2910 nM
GI50 (A2058 melanoma cell line): > 10000 nM
GI50 (M249 melanoma cell line): 100 nM
GI50 [3]: 50 nM
GI50 [4]: > 10000 nM
GI50 [5]: 700 nM
SMILES: Cn1cnc2c(F)c(Nc3ccc(Br)cc3Cl)c(C(=O)NOCCO)cc21 [Selumetinib, 6-(4-bromo-2-chlorophenylamino)-7-fluoro-N-(2-hydroxyethoxy)-3-methyl-3H-benzo[d]imidazole-5-carboxamide]
GI50 (M233 melanoma cell line): > 10000 nM
GI50 (M376 melanoma cell line): 1000 nM
